In patent US12012409B2, “Bicyclic heterocycles as FGFR inhibitors” (Incyte Corporation, priority 2020, dated 2024):

Experiments:
Assay type in all cases: biochemical
Conditions in all cases: wild-type un-phosphorylated protein; pre-incubated for 4 hours; ATP near or below Km
[1] = biological target: wild-type un-phosphorylated FGFR3 (Homo sapiens, UniProt P22607); assay: FGFR Enzymatic Assay (FRET peptide phosphorylation), FGFR3
Procedure: (§1) The inhibitor potency of the exemplified compounds was determined in an enzyme discontinuous assay that measures peptide phosphorylation using FRET measurements to detect product formation. Inhibitors were serially diluted in DMSO and a volume of 0.2 μL was transferred to the wells of a 384-well plate. […] Appropriate controls (enzyme blank and enzyme with no inhibitor) were included on the plate. […] The ATP Km values were pre-determined in a separate series of experiments. […] The plate was allowed to equilibrate for ˜10 minutes at ambient temperature before scanning on a PheraStar plate reader (BMG Labtech) instrument.
(§2) Either GraphPad prism or XLfit was used to analyze the data. The IC50 values were derived by fitting the data to a four parameter logistic equation producing a sigmoidal dose-response curve with a variable Hill coefficient. Prism equation: Y=Bottom+(Top−Bottom)/(1+10^((LogIC50−X)*Hill slope)); XLfit equation: Y=(A+((B−A)/(1+((X/C)^D)))) where X is the logarithm of inhibitor concentration and Y is the response.

[2] = biological target: wild-type un-phosphorylated FGFR4 (Homo sapiens, UniProt P22455); assay: FGFR Enzymatic Assay (FRET peptide phosphorylation), FGFR4
Procedure: as §1, §2
(§3) The data in Table 1 was measured in wild-type un-phosphorylated FGFR1, FGFR2, FGFR3 and FGFR4 protein.

[3] = biological target: wild-type un-phosphorylated FGFR1 (Homo sapiens, UniProt P11362); assay: FGFR Enzymatic Assay (FRET peptide phosphorylation), FGFR1
Procedure: as §1, §2

[4] = biological target: wild-type un-phosphorylated FGFR2 (Homo sapiens, UniProt P21802); assay: FGFR Enzymatic Assay (FRET peptide phosphorylation), FGFR2
Procedure: as §1, §2, §3

Chain of wild-type un-phosphorylated FGFR2 (P21802 22-821): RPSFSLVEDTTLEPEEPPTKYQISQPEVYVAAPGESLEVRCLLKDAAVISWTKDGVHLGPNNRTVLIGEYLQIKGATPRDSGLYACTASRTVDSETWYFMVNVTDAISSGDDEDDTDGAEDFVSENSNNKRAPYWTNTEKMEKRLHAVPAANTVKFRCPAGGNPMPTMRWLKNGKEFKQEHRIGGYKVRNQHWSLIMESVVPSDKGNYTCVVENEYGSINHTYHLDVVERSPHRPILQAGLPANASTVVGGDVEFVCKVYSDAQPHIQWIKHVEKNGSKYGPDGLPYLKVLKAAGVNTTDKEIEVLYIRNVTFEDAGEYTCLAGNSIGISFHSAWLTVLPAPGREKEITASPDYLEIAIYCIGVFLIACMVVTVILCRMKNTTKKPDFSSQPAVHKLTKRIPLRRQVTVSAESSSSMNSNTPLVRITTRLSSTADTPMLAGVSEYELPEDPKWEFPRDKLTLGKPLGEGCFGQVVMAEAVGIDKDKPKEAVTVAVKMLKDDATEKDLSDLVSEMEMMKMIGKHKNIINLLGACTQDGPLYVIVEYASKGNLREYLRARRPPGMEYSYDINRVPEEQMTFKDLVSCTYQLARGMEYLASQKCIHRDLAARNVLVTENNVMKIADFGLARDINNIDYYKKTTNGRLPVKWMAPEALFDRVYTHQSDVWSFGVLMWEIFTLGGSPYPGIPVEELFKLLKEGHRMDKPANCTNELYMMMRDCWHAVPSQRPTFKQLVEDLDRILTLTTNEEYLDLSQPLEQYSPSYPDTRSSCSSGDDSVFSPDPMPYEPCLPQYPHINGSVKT
Chain of wild-type un-phosphorylated FGFR1 (P11362 22-822): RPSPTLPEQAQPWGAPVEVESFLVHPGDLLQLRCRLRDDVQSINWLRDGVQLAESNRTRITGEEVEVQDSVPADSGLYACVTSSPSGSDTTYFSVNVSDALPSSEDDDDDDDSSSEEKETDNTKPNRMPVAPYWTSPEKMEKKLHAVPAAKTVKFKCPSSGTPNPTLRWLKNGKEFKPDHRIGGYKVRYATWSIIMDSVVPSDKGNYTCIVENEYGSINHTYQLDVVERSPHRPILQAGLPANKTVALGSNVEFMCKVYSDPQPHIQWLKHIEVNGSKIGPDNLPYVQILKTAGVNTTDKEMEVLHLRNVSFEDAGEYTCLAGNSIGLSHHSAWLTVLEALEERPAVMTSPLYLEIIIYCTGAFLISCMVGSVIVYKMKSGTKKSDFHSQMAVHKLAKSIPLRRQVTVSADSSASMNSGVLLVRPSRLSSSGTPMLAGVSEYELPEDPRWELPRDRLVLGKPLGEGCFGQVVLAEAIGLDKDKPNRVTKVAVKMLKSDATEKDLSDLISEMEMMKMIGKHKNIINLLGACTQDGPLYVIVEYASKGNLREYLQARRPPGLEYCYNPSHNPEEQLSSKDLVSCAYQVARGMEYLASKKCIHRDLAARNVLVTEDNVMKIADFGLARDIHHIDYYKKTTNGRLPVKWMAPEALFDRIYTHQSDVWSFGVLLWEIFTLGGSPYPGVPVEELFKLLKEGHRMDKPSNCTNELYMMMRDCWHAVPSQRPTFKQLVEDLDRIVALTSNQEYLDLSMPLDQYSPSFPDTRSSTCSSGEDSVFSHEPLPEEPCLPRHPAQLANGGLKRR
Chain of wild-type un-phosphorylated FGFR3 (P22607 23-806): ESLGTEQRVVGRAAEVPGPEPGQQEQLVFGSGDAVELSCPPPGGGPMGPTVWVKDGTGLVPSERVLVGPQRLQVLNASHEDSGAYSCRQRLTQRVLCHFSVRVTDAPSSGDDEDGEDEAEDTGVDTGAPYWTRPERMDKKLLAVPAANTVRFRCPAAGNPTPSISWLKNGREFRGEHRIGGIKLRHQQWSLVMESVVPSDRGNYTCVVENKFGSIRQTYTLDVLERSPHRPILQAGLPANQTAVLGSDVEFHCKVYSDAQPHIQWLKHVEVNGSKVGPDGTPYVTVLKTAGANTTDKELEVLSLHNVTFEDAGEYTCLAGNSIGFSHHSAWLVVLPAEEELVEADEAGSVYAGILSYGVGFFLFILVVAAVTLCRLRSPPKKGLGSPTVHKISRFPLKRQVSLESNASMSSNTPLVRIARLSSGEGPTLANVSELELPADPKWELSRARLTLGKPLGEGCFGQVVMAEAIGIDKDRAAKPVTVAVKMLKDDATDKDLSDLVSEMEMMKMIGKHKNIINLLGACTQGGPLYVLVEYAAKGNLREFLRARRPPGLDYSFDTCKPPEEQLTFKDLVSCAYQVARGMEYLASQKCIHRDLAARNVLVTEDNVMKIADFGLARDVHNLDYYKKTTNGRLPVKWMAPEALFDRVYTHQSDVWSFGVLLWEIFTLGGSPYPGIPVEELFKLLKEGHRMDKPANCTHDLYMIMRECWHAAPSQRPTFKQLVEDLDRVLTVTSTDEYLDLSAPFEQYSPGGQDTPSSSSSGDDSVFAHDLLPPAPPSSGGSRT
Chain of wild-type un-phosphorylated FGFR4 (P22455 22-802): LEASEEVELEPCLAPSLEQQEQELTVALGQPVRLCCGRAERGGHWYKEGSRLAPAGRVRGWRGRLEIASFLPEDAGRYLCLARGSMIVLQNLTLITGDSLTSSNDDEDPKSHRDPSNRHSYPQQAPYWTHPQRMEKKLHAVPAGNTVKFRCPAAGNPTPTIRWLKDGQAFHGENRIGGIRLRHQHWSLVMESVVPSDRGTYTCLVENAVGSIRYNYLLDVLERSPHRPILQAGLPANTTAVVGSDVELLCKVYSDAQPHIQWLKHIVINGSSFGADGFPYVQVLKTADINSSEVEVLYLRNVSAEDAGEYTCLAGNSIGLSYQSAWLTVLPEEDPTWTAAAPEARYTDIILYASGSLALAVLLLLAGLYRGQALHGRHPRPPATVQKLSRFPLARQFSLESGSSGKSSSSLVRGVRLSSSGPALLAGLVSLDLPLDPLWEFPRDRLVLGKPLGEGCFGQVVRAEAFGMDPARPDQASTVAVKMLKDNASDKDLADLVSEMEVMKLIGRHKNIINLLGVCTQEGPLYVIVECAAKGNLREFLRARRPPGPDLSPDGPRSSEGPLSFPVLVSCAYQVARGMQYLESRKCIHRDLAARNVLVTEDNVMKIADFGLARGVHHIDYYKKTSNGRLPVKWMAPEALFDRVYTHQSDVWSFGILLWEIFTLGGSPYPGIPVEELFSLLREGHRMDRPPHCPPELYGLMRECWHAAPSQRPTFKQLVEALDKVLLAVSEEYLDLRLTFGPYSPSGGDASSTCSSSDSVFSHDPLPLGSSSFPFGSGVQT

Compound | IC50 [1] [µM] | IC50 [2] [µM] | IC50 [3] [µM] | IC50 [4] [µM]
CNC(=O)c1cccc(-c2cnc3cc(-c4cnn(C)c4)c(OC)cn23)c1 [Example 1, 3-(6-Methoxy-7-(1-methyl-1H-pyrazol-4-yl)imidazo[1,2-a]pyridine-3-yl)-N-methylbenzamide] | 0.01 to 0.1 | ≥ 0.4 | ≥ 0.4 | 
CNC(=O)c1cccc(-c2cnc3cc(-c4cnn(C)c4)c(OC)nn23)c1 [Example 2, 3-(6-Methoxy-7-(1-methyl-1H-pyrazol-4-yl)imidazo[1,2-b]pyridazin-3-yl)-N-methylbenzamide] |  | ≥ 0.4 |  | 
CNC(=O)c1cccc(-c2cnc3cc(-c4cnn(C)c4)c(OC4COC4)nn23)c1 [Example 58, N-Methyl-3-(7-(1-methyl-1H-pyrazol-4-yl)-6-(oxetan-3-yloxy)imidazo[1,2-b]pyridazin-3-yl)benzamide] |  | 0.1 to 0.4 |  | < 0.01
CNC(=O)c1cc(F)c(F)c(-c2cnc3cc(-c4cnn(CCN5CCCC5=O)c4)c(O[C@H]4CCOC4)nn23)c1 [Example 75, (S)-3,4-Difluoro-N-methyl-5-(7-(1-(2-(2-oxopyrrolidin-1-yl)ethyl)-1H-pyrazol-4-yl)-6-((tetrahydrofuran-3-yl)oxy)imidazo[1,2-b]pyridazin-3-yl)benzamide] | < 0.01 |  | < 0.01 | < 0.01
CNC(=O)c1cc(F)c(F)c(-c2cnc3cc(-c4cnn(C5CCN(S(=O)(=O)N(C)C)CC5)c4)c(O[C@H]4CCOC4)nn23)c1 [Example 76, (S)-3-(7-(1-(1-(N,N-Dimethylsulfamoyl)piperidin-4-yl)-1H-pyrazol-4-yl)-6-((tetrahydrofuran-3-yl)oxy)imidazo[1,2-b]pyridazin-3-yl)-4,5-difluoro-N-methylbenzamide] | < 0.01 |  | < 0.01 | < 0.01
CC(C)n1cc(-c2cc3ncc(-c4ccc5c(c4)C(=O)NC5)n3nc2O[C@H]2CCOC2)cn1 [Example 77, (S)-6-(7-(1-Isopropyl-1H-pyrazol-4-yl)-6-((tetrahydrofuran-3-yl)oxy)imidazo[1,2-b]pyridazin-3-yl)isoindolin-1-one] | 0.01 to 0.1 |  | ≥ 0.4 | 0.01 to 0.1

Now from value to compound:

IC50 [1] [µM] | IC50 [2] [µM] | IC50 [3] [µM] | IC50 [4] [µM] | Compound
< 0.01 | 0.1 to 0.4 | 0.01 to 0.1 | < 0.01 | CNC(=O)c1cc(F)c(F)c(-c2cnc3cc(-c4cnn5c4CCC5)c(O[C@H]4CCOC4)nn23)c1 [Example 22, (S)-3-(7-(5,6-Dihydro-4H-pyrrolo[1,2-b]pyrazol-3-yl)-6-((tetrahydrofuran-3-yl)oxy)imidazo[1,2-b]pyridazin-3-yl)-4,5-difluoro-N-methylbenzamide]
< 0.01 | 0.01 to 0.1 | 0.01 to 0.1 | < 0.01 | CNC(=O)c1cc(-c2cnc3cc(-c4cnn(CCN5CCOCC5)c4)c(O[C@H]4CCOC4)nn23)c(F)c(C(F)F)c1 [Example 30, (S)-3-(Difluoromethyl)-4-fluoro-N-methyl-5-(7-(1-(2-morpholinoethyl)-1H-pyrazol-4-yl)-6-((tetrahydrofuran-3-yl)oxy)imidazo[1,2-b]pyridazin-3-yl)benzamide]
< 0.01 |  | 0.01 to 0.1 | 0.01 to 0.1 | CNC(=O)c1cncc(-c2cnc3cc(-c4ccc(N5CCN(C)CC5)cc4)c(O[C@H]4CCOC4)nn23)c1 [Example 68, (S)—N-Methyl-5-(7-(4-(4-methylpiperazin-1-yl)phenyl)-6-((tetrahydrofuran-3-yl)oxy)imidazo[1,2-b]pyridazin-3-yl)nicotinamide]
< 0.01 |  | 0.01 to 0.1 | < 0.01 | CNC(=O)c1cc(F)c(F)c(-c2cnc3cc(-c4cnn(C5CCS(=O)(=O)C5)c4)c(O[C@H]4CCOC4)nn23)c1 (stereo partly drawn) [Example 69, 3-(7-(1-(1,1-Dioxidotetrahydrothiophen-3-yl)-1H-pyrazol-4-yl)-6-(((S)-tetrahydrofuran-3-yl)oxy)imidazo[1,2-b]pyridazin-3-yl)-4,5-difluoro-N-methylbenzamide]
< 0.01 |  | 0.1 to 0.4 | < 0.01 | CNC(=O)c1cc(F)c(F)c(-c2cnc3cc(-c4cnn(-c5ccccn5)c4)c(O[C@H]4CCOC4)nn23)c1 [Example 70, (S)-3,4-Difluoro-N-methyl-5-(7-(1-(pyridin-2-yl)-1H-pyrazol-4-yl)-6-((tetrahydrofuran-3-yl)oxy)imidazo[1,2-b]pyridazin-3-yl)benzamide]
< 0.01 |  | < 0.01 | < 0.01 | CNC(=O)c1cc(F)c(F)c(-c2cnc3cc(-c4cnn(C5CCN(C)CC5)c4)c(O[C@H]4CCOC4)nn23)c1 [Example 71, (S)-3,4-Difluoro-N-methyl-5-(7-(1-(1-methylpiperidin-4-yl)-1H-pyrazol-4-yl)-6-((tetrahydrofuran-3-yl)oxy)imidazo[1,2-b]pyridazin-3-yl)benzamide]
< 0.01 |  | 0.1 to 0.4 | 0.01 to 0.1 | CNC(=O)c1cc(F)c(F)c(-c2cnc3cc(-c4ccncc4)c(O[C@H]4CCOC4)nn23)c1 [Example 72, (S)-3,4-Difluoro-N-methyl-5-(7-(pyridin-4-yl)-6-((tetrahydrofuran-3-yl)oxy)imidazo[1,2-b]pyridazin-3-yl)benzamide]
< 0.01 |  | < 0.01 | < 0.01 | CNC(=O)c1cc(F)c(F)c(-c2cnc3cc(-c4cnn(C5CCN(C(=O)N(C)C)CC5)c4)c(O[C@H]4CCOC4)nn23)c1 [Example 73, (S)-4-(4-(3-(2,3-Difluoro-5-(methylcarbamoyl)phenyl)-6-((tetrahydrofuran-3-yl)oxy)imidazo[1,2-b]pyridazin-7-yl)-1H-pyrazol-1-yl)-N,N-dimethylpiperidine-1-carboxamide]
< 0.01 |  | < 0.01 | < 0.01 | CNC(=O)c1cc(F)c(F)c(-c2cnc3cc(-c4cnn(C5CCN(C(C)=O)CC5)c4)c(O[C@H]4CCOC4)nn23)c1 [Example 74, (S)-3-(7-(1-(1-Acetylpiperidin-4-yl)-1H-pyrazol-4-yl)-6-((tetrahydrofuran-3-yl)oxy)imidazo[1,2-b]pyridazin-3-yl)-4,5-difluoro-N-methylbenzamide]
